± gives the expanded uncertainty stated by the source.
Experiment: activity coefficient (dimensionless); of the first substance listed, at infinite dilution; xn = mol fraction of the nth substance listed
Settings: Liquid, Chromatography, x1 = 0

Compound	activity coefficient (323.15 K)	activity coefficient (333.15 K)	activity coefficient (343.15 K)
CCC[N+](=O)[O-] [1-nitropropane] + CCCOC[n+]1ccn(C)c1.F[B-](F)(F)F	1.78 ± 0.12	1.78 ± 0.12	1.78 ± 0.12
CCC[N+](=O)[O-] [1-nitropropane] + CCCOC[n+]1ccn(C)c1.N#C[N-]C#N	1.36 ± 0.09	1.37 ± 0.09	1.39 ± 0.09
CCC[N+](=O)[O-] [1-nitropropane] + CCCOC[n+]1ccn(C)c1.O=S(=O)([N-]S(=O)(=O)C(F)(F)F)C(F)(F)F	0.74 ± 0.05	0.72 ± 0.05	0.72 ± 0.05
CCC[N+](=O)[O-] [1-nitropropane] + CCCOC[n+]1ccn(Cc2ccccc2)c1.F[B-](F)(F)F	1.16 ± 0.07	1.12 ± 0.07	1.14 ± 0.07
CCC[N+](=O)[O-] [1-nitropropane] + CCCOC[n+]1ccn(Cc2ccccc2)c1.N#C[N-]C#N	1.04 ± 0.07	1.06 ± 0.07	1.06 ± 0.07
CCC[N+](=O)[O-] [1-nitropropane] + CCCOC[n+]1ccn(Cc2ccccc2)c1.O=S(=O)([N-]S(=O)(=O)C(F)(F)F)C(F)(F)F	0.53 ± 0.04	0.46 ± 0.04	0.47 ± 0.04
CCC[N+](=O)[O-] [1-nitropropane] + CN(C)c1cc[n+](COCCCOC[n+]2ccc(N(C)C)cc2)cc1.O=S(=O)([N-]S(=O)(=O)C(F)(F)F)C(F)(F)F.O=S(=O)([N-]S(=O)(=O)C(F)(F)F)C(F)(F)F	0.57 ± 0.04	0.59 ± 0.04	0.56 ± 0.04
CCC[N+](=O)[O-] [1-nitropropane] + Cn1cc[n+](COCCCOC[n+]2ccn(C)c2)c1.O=S(=O)([N-]S(=O)(=O)C(F)(F)F)C(F)(F)F.O=S(=O)([N-]S(=O)(=O)C(F)(F)F)C(F)(F)F	0.54 ± 0.04	0.54 ± 0.04	0.53 ± 0.04
CCC[N+](=O)[O-] [1-nitropropane] + N#C[N-]C#N.N#C[N-]C#N.c1ccc(Cn2cc[n+](COCCCOC[n+]3ccn(Cc4ccccc4)c3)c2)cc1	1.76 ± 0.12	1.73 ± 0.12	1.75 ± 0.12
CC(C)CC(C)(C)C [2,2,4-trimethylpentane] + CCCCCCCCn1cc[n+](COCCCOC[n+]2ccn(CCCCCCCC)c2C)c1C.N#C[N-]C#N.N#C[N-]C#N	11.4 ± 0.78	10.5 ± 0.72	9.74 ± 0.66
CC(C)CC(C)(C)C [2,2,4-trimethylpentane] + CN(C)c1cc[n+](COCCCOC[n+]2ccc(N(C)C)cc2)cc1.O=S(=O)([N-]S(=O)(=O)C(F)(F)F)C(F)(F)F.O=S(=O)([N-]S(=O)(=O)C(F)(F)F)C(F)(F)F	31.7 ± 2.2	25.2 ± 1.7	25.4 ± 1.7
CC(C)CO [2-methyl-1-propanol] + CCCCCCCCn1cc[n+](COCCC)c1C.O=S(=O)([N-]S(=O)(=O)C(F)(F)F)C(F)(F)F	1.21 ± 0.08	1.09 ± 0.07	1.03 ± 0.06
CC(C)CO [2-methyl-1-propanol] + CCCCCCCCn1cc[n+](COCCCOC[n+]2ccn(CCCCCCCC)c2C)c1C.N#C[N-]C#N.N#C[N-]C#N	0.36 ± 0.03	0.36 ± 0.03	0.35 ± 0.03
CC(C)CO [2-methyl-1-propanol] + CCCCCCCCn1cc[n+](COCCCOC[n+]2ccn(CCCCCCCC)c2C)c1C.O=S(=O)([N-]S(=O)(=O)C(F)(F)F)C(F)(F)F.O=S(=O)([N-]S(=O)(=O)C(F)(F)F)C(F)(F)F	0.8 ± 0.05	0.72 ± 0.05	0.67 ± 0.05
CC(C)CO [2-methyl-1-propanol] + CCCOC[n+]1ccc(N(C)C)cc1.O=S(=O)([N-]S(=O)(=O)C(F)(F)F)C(F)(F)F	2.03 ± 0.14	1.92 ± 0.13	1.73 ± 0.12
CC(C)CO [2-methyl-1-propanol] + CCCOC[n+]1ccn(C)c1.F[B-](F)(F)F	4.35 ± 0.3	3.95 ± 0.27	3.56 ± 0.24
CC(C)CO [2-methyl-1-propanol] + CCCOC[n+]1ccn(C)c1.N#C[N-]C#N	1.29 ± 0.08	1.25 ± 0.08	1.21 ± 0.08
CC(C)CO [2-methyl-1-propanol] + CCCOC[n+]1ccn(C)c1.O=S(=O)([N-]S(=O)(=O)C(F)(F)F)C(F)(F)F	2.18 ± 0.15	1.93 ± 0.13	1.76 ± 0.12
CC(C)CO [2-methyl-1-propanol] + CCCOC[n+]1ccn(Cc2ccccc2)c1.F[B-](F)(F)F	2.86 ± 0.19	2.53 ± 0.17	2.34 ± 0.16
CC(C)CO [2-methyl-1-propanol] + CCCOC[n+]1ccn(Cc2ccccc2)c1.N#C[N-]C#N	0.9 ± 0.06	0.86 ± 0.06	
CC(C)CO [2-methyl-1-propanol] + CN(C)c1cc[n+](COCCCOC[n+]2ccc(N(C)C)cc2)cc1.O=S(=O)([N-]S(=O)(=O)C(F)(F)F)C(F)(F)F.O=S(=O)([N-]S(=O)(=O)C(F)(F)F)C(F)(F)F	1.85 ± 0.12	1.66 ± 0.11	1.5 ± 0.1

Source: the NIST ThermoML archive (doi:10.1016/j.fluid.2014.11.020)
